Experimental data: patent US20080058373A1, “Compositions and Methods for Treating or Preventing Glaucoma or Progression Thereof” (priority 2006, published 2008)
Several values for one entry are separate records, joined by “and”; a condition that tells them apart may be missing. Identical values can stand only once.

Key:
Type in all cases: in vivo
protein in aqueous humor = assay: Protein measurement in aqueous humor, rabbit paracentesis model; details: for Protein levels in aqueous humor (raw data): samples collected at the second paracentesis, single eyes; for Protein levels in aqueous humor, Mean: second paracentesis, group mean
Description: (§1) Each rabbit was placed in a restraint device and tagged with the alphanumeric code. The formulations were instilled (50 μl) into the conjunctival sac of both eyes 180, 120, 90 and 30 min before the first paracentesis; then 15, 30, 90 min after the first paracentesis. To perform the first paracentesis the animals were anaesthetized by intravenous injection of 5 mg/kg Zoletil® (Virbac; 2.5 mg/kg tiletamine HCl and 2.5 mg/kg zolazepam HCl) and one drop of local anesthetic (Novesina®, Novartis) was administered to the eye. Anterior chamber paracentesis was performed with a 26 G needle attached to a tuberculin syringe; the needle was introduced into the anterior chamber through the cornea, taking care not to damage the tissues. Two hours after the first paracentesis, the animals were sacrificed with 0.4 ml Tanax® (Intervet International B.V.) and the second paracentesis was performed. About 100 μl of aqueous humor were removed at the second paracentesis. Aqueous humor was immediately split in four aliquots and stored at −80° C. until analysis. Then both eyes were enucleated and the iris-ciliary body was carefully excised, placed in polypropylene tubes, and stored at −80° C. until analysis.
For protein concentration determination in the aqueous humor we used the Protein Quantification Kit (Fluka; Cat.No. 77371; Lot.No. 1303129). Five microliters of aqueous humor were diluted to 100 μl with water. Twenty microliters of samples and of standards were load into a 96-well plate and recorded in a plate layout. Samples were treated following the assay procedure described in the kit. A microplate reader (GDV, Italy; model DV 990 B/V6) set at 670 nm was used for making the calibration and analyzing the samples.

Leukocytes (PMN) = Leukocytes (PMN) measurement in aqueous humor, rabbit paracentesis model; details: for PMN numbers in aqueous humor, Mean: second paracentesis, group mean
Description: as §1
For the determination of the number of leukocytes we used a haemocytometer (Improved Neubauer Chamber; Bright-line, Hausser Scientific) and a Polyvar 2 microscope (Reichert-Jung).

Myeloperoxidase (MPO) = Myeloperoxidase (MPO) activity in iris-ciliary body, rabbit paracentesis model; details: for MPO activity in iris-ciliary body, Mean / MPO activity in iris-ciliary body: samples collected after the second paracentesis; for MPO activity in iris-ciliary body, Mean: group mean; for Δ/min (mean of the slope of the line recorded every 15 sec for 5 min) / MPO activity in iris-ciliary body: individual eyes
Description: 3.9 g of NaH2PO4 2H2O were dissolved in a volumetric flask to 500 ml with water. The pH was adjusted to pH=6 with 3N NaOH.
0.5 g of hexa-decyl-trimethyl-ammonium bromide was dissolved in 100 ml phosphate buffer.
The solution was prepared freshly. Ten microliters of H2O2 (30 wt. %) were diluted to 1 ml with water (solution A). 7.5 mg o-dianisidine 2HCl was dissolved in 45 ml of phosphate buffer and 75 μl of solution A were added.
as §1
The activity of MPO was measured as previously described by Williams et al.[5] The iris-ciliary bodies were carefully dried, weighed and immersed in 1 ml of hexa-decyl-trimethyl-ammonium bromide solution. Then, the samples were sonicated for 10 sec on ice by a ultrasound homogenizer (HD 2070, Bandelin electronic), freeze-thawed three times, sonicated for 10 sec and centrifuged at 14,000 g for 10 min to remove cellular debris. An aliquot of the supernatant (40-200 μl) was diluted to 3 ml with the o-dianisidine 2HCl/H2O2 solution. The change in absorbance at 460 nm was continuously monitored for 5 min by a spectrophotometer (UV/Vis Spectrometer Lambda EZ 201; Perkin Elmer). The slope of the line (Δ/min) was determined for each sample and used to calculate the number of units of MPO in the tissue as follows:
Values were expressed as units of MPO/g of tissue.

[1] = system: rabbit eye (anterior chamber paracentesis); assay: Pupillary diameter measurement, rabbit paracentesis model; details: for Pupillary diameter T1: −180 min: 50 μl drops, −180 min (basal); for Pupillary diameter T1: −180 min / Pupillary diameter T2: −5 min / Pupillary diameter T3: +115 min: single eyes; for Pupillary diameter T2: −5 min: 5 min before the first paracentesis; for Pupillary diameter T3: +115 min: 5 min before the second paracentesis; for Pupillary diameter Mean Δ(T3 − T1): group mean, n=8 eyes
Description: as §1
The pupillary diameter of both eyes was measured with a Castroviejo caliper 180 min and 5 min before the first paracentesis and 5 min before the second paracentesis.

Prostaglandin E2 (PGE2) = Prostaglandin E2 (PGE2) measurement in aqueous humor, rabbit paracentesis model; details: second paracentesis, group mean
Description: as §1
For the quantitative determination of PGE2 in the aqueous humor we used the PGE2 Immunoassay kit (R&D Systems; Cat.No. KGE004; Lot.No. 240010). Eleven microliters or 16 μl of aqueous humor were diluted to 110 μl or 160 μl with the calibrator diluent solution provided with the kit. One hundred microliters of samples and of standards were load into a 96-well plate and recorded in a plate layout. Samples were treated following the assay procedure described in the kit. A microplate reader (GDV, Italy; model DV 990 B/V6) set at 450 nm (wavelength correction at 540 nm) was used for making the calibration and analyzing the samples.

[2] = system: rabbit eye (anterior chamber paracentesis); assay: Clinical evaluation by slit lamp (clinical score), rabbit paracentesis model; set-up: key to Clinical Score −180 min / Clinical Score −5 min / Clinical Score +115 min: 0=normal; 1=discrete dilatation of iris and conjunctival vessels; 2=moderate dilatation of iris and conjunctival vessels; 3=intense iridal hyperemia with flare in the anterior chamber; 4=intense iridal hyperemia with flare in the anterior chamber and presence of fibrinous exudates; details: for Clinical Score −5 min: 5 min before the first paracentesis; for Clinical Score −5 min / Clinical Score +115 min / Clinical Score −180 min: single eyes; for Clinical Score +115 min: 5 min before the second paracentesis
[3] = 0.5% topical, +115 min, N=8 eyes

SMILES: CC(C(=O)O)c1ccc(-c2ccccc2)c(F)c1 (stereo not drawn) [flurbiprofen]
- Protein levels in aqueous humor (raw data) (protein in aqueous humor; 0.03% topical, listed as F): 20.78 mg/mL and 28.80 mg/mL and 23.41 mg/mL and 20.21 mg/mL and 17.53 mg/mL and 15.12 mg/mL and 20.52 mg/mL
- Protein levels in aqueous humor, Mean (protein in aqueous humor; 0.03% topical): 20.910 mg/mL
- PMN numbers in aqueous humor, Mean (Leukocytes (PMN); 0.03% topical): 30.000 number/μl
- MPO activity in iris-ciliary body, Mean (Myeloperoxidase (MPO); 0.03% topical): 0.906 MPO Unit/g
- Δ/min (mean of the slope of the line recorded every 15 sec for 5 min) (Myeloperoxidase (MPO); 0.03% treatment, 100 μl supernatant aliquot diluted to 3 ml, listed as F): 0.049 and 0.082 and 0.013 and 0.031 and 0.038 and 0.027 and 0.033 and 0.061
- MPO activity in iris-ciliary body (Myeloperoxidase (MPO); 0.03% treatment, listed as F): 1.10 Unit/g and 1.70 Unit/g and 0.34 Unit/g and 0.75 Unit/g and 0.74 Unit/g and 0.63 Unit/g and 0.73 Unit/g and 1.27 Unit/g
- Pupillary diameter T1: −180 min ([1]; 0.03% topical, listed as F): 5.0 mm and 7.0 mm and 6.0 mm and 5.5 mm
- Pupillary diameter T2: −5 min ([1]; 0.03% topical, listed as F): 6.0 mm and 6.5 mm and 7.0 mm and 5.5 mm
- Pupillary diameter T3: +115 min ([1]; 0.03% topical, listed as F): 4.0 mm and 3.5 mm and 5.5 mm and 5.0 mm and 4.5 mm and 6.0 mm
- Pupillary diameter Mean Δ(T3 − T1) ([1]; 0.03% topical): −0.9 mm
- Levels of PGE2 in aqueous humor, Mean (Prostaglandin E2 (PGE2); 0.03% topical): 1.189 ng/mL
- Clinical Score −5 min ([2]; 0.03% topical): 0
- Clinical Score +115 min ([2]; 0.03% topical): 2
- Percentage of eyes with clinical score 2 ([2]; 0.03% topical, +115 min, N=8 eyes): 100%
- Percentage of eyes with clinical score 0 ([2]; 0.03% topical, −5 min, N=8 eyes): 100%
- Percentage of eyes with clinical score 0 ([2]; 0.03% topical, −180 min (basal), N=8 eyes): 100%
- Clinical Score −180 min ([2]; 0.03% topical, −180 min (basal)): 0

SMILES: CCOC(=O)O[C@]1(C(=O)OCCl)CC[C@H]2[C@@H]3CCC4=CC(=O)C=C[C@]4(C)[C@H]3[C@@H](O)C[C@@]21C [loteprednol etabonate]
- Protein levels in aqueous humor (raw data) (protein in aqueous humor; 0.5% topical, listed as LE): 36.14 mg/mL and 39.10 mg/mL and 34.69 mg/mL and 26.10 mg/mL and 26.30 mg/mL and 28.16 mg/mL and 40.90 mg/mL and 39.85 mg/mL
- Protein levels in aqueous humor, Mean (protein in aqueous humor; 0.5% topical): 33.905 mg/mL
- PMN numbers in aqueous humor (raw data) (Leukocytes (PMN); 0.5% topical, samples collected at the second paracentesis, single eyes, listed as LE): 40 number/μl and 20 number/μl and 30 number/μl
- PMN numbers in aqueous humor, Mean (Leukocytes (PMN); 0.5% topical): 28.333 number/μl
- MPO activity in iris-ciliary body, Mean (Myeloperoxidase (MPO); 0.5% topical): 0.661 MPO Unit/g
- Δ/min (mean of the slope of the line recorded every 15 sec for 5 min) (Myeloperoxidase (MPO); 0.5% treatment, 200 μl supernatant aliquot diluted to 3 ml, listed as LE): 0.026 and 0.053 and 0.067 and 0.055 and 0.076 and 0.096
- MPO activity in iris-ciliary body (Myeloperoxidase (MPO); 0.5% treatment, listed as LE): 0.30 Unit/g and 0.51 Unit/g and 0.81 Unit/g and 0.60 Unit/g and 0.73 Unit/g and 1.01 Unit/g
- Pupillary diameter T1: −180 min ([1]; 0.5% topical, listed as LE): 6.0 mm and 6.5 mm
- Pupillary diameter T2: −5 min ([1]; 0.5% topical, listed as LE): 6.0 mm and 6.5 mm
- Pupillary diameter T3: +115 min ([1]; 0.5% topical, listed as LE): 4.5 mm and 5.0 mm and 5.5 mm and 6.0 mm
- Pupillary diameter Mean Δ(T3 − T1) ([1]; 0.5% topical): −0.9 mm
- Levels of PGE2 in aqueous humor, Mean (Prostaglandin E2 (PGE2); 0.5% topical): 0.672 ng/mL
- Clinical Score −5 min ([2]; 0.5% topical): 0
- Clinical Score +115 min ([2]; 0.5% topical, listed as LE): 2 and 1
- Percentage of eyes with clinical score 1 [2, 3]: 75%
- Percentage of eyes with clinical score 2 [2, 3]: 25%
- Percentage of eyes with clinical score 0 ([2]; 0.5% topical, −5 min, N=8 eyes): 100%
- Percentage of eyes with clinical score 0 ([2]; 0.5% topical, −180 min (basal), N=8 eyes): 100%
- Clinical Score −180 min ([2]; 0.5% topical, −180 min (basal)): 0
